# Measured values reported in patent publication US20240174675A1, “SMALL MOLECULE REGULATORS OF ALVEOLAR TYPE 2 CELL PROLIFERATION FOR THE TREATMENT OF PULMONARY DISEASES” (THE SCRIPPS RESEARCH INSTITUTE, priority 2021, published 2024).
# Legend:
# [1] = Pharmacokinetic profiling, plasma and lung levels after intratracheal or inhalation delivery in the mouse; type: in vivo; conditions: mouse; IT dosing at 2 mg/kg (FIG. 2); after 48 h
# Human DPP4 = target: T1, Human DPP4 (Homo sapiens, UniProt P27487); assay: DPP4 activity assay (DPP4 Activity Assay Kit, fluorescent substrate); type: biochemical; conditions: Human DPP4; read-out: DPP4 inhibition IC50 [nM])
# T1 construct: purchased Sigma-Aldrich MAK088
# T1 sequence (P27487 whole entry): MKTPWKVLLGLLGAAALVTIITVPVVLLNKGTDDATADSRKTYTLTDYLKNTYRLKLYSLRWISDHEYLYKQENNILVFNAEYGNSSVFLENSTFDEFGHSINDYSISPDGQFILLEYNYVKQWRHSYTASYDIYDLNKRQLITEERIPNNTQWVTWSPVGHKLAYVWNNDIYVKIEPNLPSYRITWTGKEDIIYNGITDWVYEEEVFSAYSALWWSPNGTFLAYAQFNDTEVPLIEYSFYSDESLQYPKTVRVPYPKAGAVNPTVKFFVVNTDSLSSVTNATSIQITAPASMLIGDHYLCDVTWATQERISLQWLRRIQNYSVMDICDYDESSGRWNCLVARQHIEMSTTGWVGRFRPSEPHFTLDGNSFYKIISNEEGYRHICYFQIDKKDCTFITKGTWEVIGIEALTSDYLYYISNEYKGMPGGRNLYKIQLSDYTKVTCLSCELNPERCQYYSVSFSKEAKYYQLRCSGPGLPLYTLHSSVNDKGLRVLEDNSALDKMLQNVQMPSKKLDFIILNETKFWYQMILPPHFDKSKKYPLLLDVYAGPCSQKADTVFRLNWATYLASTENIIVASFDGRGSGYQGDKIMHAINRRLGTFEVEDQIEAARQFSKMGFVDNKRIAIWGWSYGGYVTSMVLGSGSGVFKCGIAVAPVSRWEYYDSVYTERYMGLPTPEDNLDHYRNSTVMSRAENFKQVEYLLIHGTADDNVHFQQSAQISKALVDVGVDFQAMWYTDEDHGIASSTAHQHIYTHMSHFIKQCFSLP
# Procedure: DPP4 activity assay. Human DPP4 activity assay data were obtained using a DPP4 Activity Assay Kit (Sigma-Aldrich, MAK088) according to the manufacturer's instructions. Briefly, 10 μL of DPP4 Assay Buffer were transferred per well in low volume 384-well plates before transferring 10 μL of test compound dissolved in DPP4 assay buffer. To each well was added 5 μL of Master Reaction Mix containing a fluorescent substrate that becomes fluorescent upon cleavage by the enzyme. Fluorescence intensity measurements were recorded at 1-minute time intervals over the course of 20 minutes using an Envision Multimode Plate Reader (PerkinElmer).
SMILES,level in the lung after 48 h [1],IC50 (Human DPP4) [nM]
"COC(=O)c1nc(C(F)(F)F)n2c1CN(C(=O)C[C@H](N)Cc1cc(F)c(F)cc1F)CC2 [retagliptin, reference compound]",very low,
"CC#CCn1c(N2CCC[C@@H](N)C2)nc2c1c(=O)n(Cc1ccc(Cl)cc1C(=O)OCCCCCC)c(=O)n2C [Compound 38, hexyl (R)-2-((8-(3-aminopiperidin-1-yl)-7-(but-2-yn-1-yl)-3-methyl-2,6-dioxo-2,3,6,7-tetrahydro-1H-purin-1-yl)methyl)-5-chlorobenzoate]",,> 10000
CC#CCn1c(N2CCC[C@@H](N)C2)nc2c1c(=O)n(Cc1nc(F)ccc1C(=O)O)c(=O)n2C [Compound 29],,7.1
"N#C[C@@H]1CCCN1C(=O)CN[C@@]12CC3C[C@@H](C1)C[C@](OCCOCCN(C[C@H](O)[C@@H](O)[C@H](O)[C@H](O)CO)C[C@H](O)[C@@H](O)[C@H](O)[C@H](O)CO)(C3)C2 [Compound 10, (2S)-1-(((1S,3R,5S)-3-(2-(2-(bis((2S,3R,4R,5R)-2,3,4,5,6-pentahydroxyhexyl)amino)ethoxy)ethoxy)adamantan-1-yl)glycyl)pyrrolidine-2-carbonitrile]",,20.8
"CCN(Cc1cn(CCOCCOCCOC(=O)c2nc(C(F)(F)F)n3c2CN(C(=O)C[C@H](N)Cc2cc(F)c(F)cc2F)CC3)nn1)C[C@H](O)[C@@H](O)[C@H](O)[C@H](O)CO [Compound 45, 2-(2-(2-(4-((ethyl((2S,3R,4R,5R)-2,3,4,5,6-pentahydroxyhexyl)amino)methyl)-1H-1,2,3-triazol-1-yl)ethoxy)ethoxy)ethyl 7-((R)-3-amino-4-(2,4,5-trifluorophenyl)butanoyl)-3-(trifluoromethyl)-5,6,7,8-tetrahydroimidazo[1,5-a]pyrazine-1-carboxylate]",,0.55
CC#CCn1c(N2CCC[C@@H](N)C2)nc2c1c(=O)n(Cc1ccc(C(=O)O)cc1)c(=O)n2C [Compound 28],,10.5
CCCCCCN(Cc1cn(CCOCCOCCOC23CC4CC(C2)CC([C@H](N)C(=O)N2[C@H](C#N)C[C@@H]5C[C@@H]52)(C4)C3)nn1)C[C@H](O)[C@@H](O)[C@H](O)[C@H](O)CO [Compound 21],,7.7
"CC#CCn1c(N2CCC[C@@H](N)C2)nc2c1c(=O)n(Cc1nc(NC)ccc1C(=O)OCCCCCC)c(=O)n2C [Compound 32, hexyl (R)-2-((8-(3-aminopiperidin-1-yl)-7-(but-2-yn-1-yl)-3-methyl-2,6-dioxo-2,3,6,7-tetrahydro-1H-purin-1-yl)methyl)-6-(methylamino)nicotinate]",,> 1000
"CCCCCCCSC12CC3C[C@@H](CC(NCC(=O)N4CCC[C@H]4C#N)(C3)C1)C2 [Compound 2, (2S)-1-((3-(heptylthio)adamantan-1-yl)glycyl)pyrrolidine-2-carbonitrile]",,26
"N[C@@H](CC(=O)N1CCn2c(C(F)(F)F)nc(C(=O)OCCN3CCOCC3)c2C1)Cc1cc(F)c(F)cc1F [Compound 49, (R)-4-(1-((2-morpholinoethoxy)carbonyl)-3-(trifluoromethyl)-5,6-dihydroimidazo[1,5-a]pyrazin-7(8H)-yl)-4-oxo-1-(2,4,5-trifluorophenyl)butan-2-aminium (2R,3S)-3-carboxy-2,3-dihydroxypropanoate]",,0.82
"CN1CC2(CC(NC(=O)c3nc(C(F)(F)F)n4c3CN(C(=O)C[C@H](N)Cc3cc(F)c(F)cc3F)CC4)C2)C1 [Compound 55, (R)-4-(1-((2-methyl-2-azaspiro[3.3]heptan-6-yl)carbamoyl)-3-(trifluoromethyl)-5,6-dihydroimidazo[1,5-a]pyrazin-7(8H)-yl)-4-oxo-1-(2,4,5-trifluorophenyl)butan-2-aminium (2R,3R)-3-carboxy-2,3-dihydroxypropanoate]",,17.8
"N[C@@H](CC(=O)N1CCn2c(C(F)(F)F)nc(C(=O)NCCOCCN3CCOCC3)c2C1)Cc1cc(F)c(F)cc1F [Compound 50, (R)-4-(1-((2-(2-morpholinoethoxy)ethyl)carbamoyl)-3-(trifluoromethyl)-5,6-dihydroimidazo[1,5-a]pyrazin-7(8H)-yl)-4-oxo-1-(2,4,5-trifluorophenyl)butan-2-aminium (2R,3R)-3-carboxy-2,3-dihydroxypropanoate]",,0.54
"CCCCCCN(CCc1ccc(OCCNC(=O)OCCSC23CC4C[C@@H](CC(NCC(=O)N5CCC[C@H]5C#N)(C4)C2)C3)cc1)C[C@H](O)[C@@H](O)[C@H](O)[C@H](O)CO (stereo in doubt) [Compound 4, 2-(((1R,3S,5S)-3-((2-((S)-2-cyanopyrrolidin-1-yl)-2-oxoethyl)amino)adamantan-1-yl)thio)ethyl (2-(4-(2-(hexyl((2S,3R,4R,5R)-2,3,4,5,6-pentahydroxyhexyl)amino)ethyl)phenoxy)ethyl)carbamate]",,11
"N[C@@H](CC(=O)N1CCn2c(C(F)(F)F)nc(C(=O)OCCOCCOCCn3cc(CNC[C@H](O)[C@@H](O)[C@H](O)[C@H](O)CO)nn3)c2C1)Cc1cc(F)c(F)cc1F [Compound 44, 2-(2-(2-(4-((((2S,3R,4R,5R)-2,3,4,5,6-pentahydroxyhexyl)amino)methyl)-1H-1,2,3-triazol-1-yl)ethoxy)ethoxy)ethyl 7-((R)-3-amino-4-(2,4,5-trifluorophenyl)butanoyl)-3-(trifluoromethyl)-5,6,7,8-tetrahydroimidazo[1,5-a]pyrazine-1-carboxylate]",,0.11
"CC#CCn1c(N2CCC[C@@H](N)C2)nc2c1c(=O)n(Cc1nc(F)ccc1C(=O)OCCCCCC)c(=O)n2C [Compound 30, hexyl (R)-2-((8-(3-aminopiperidin-1-yl)-7-(but-2-yn-1-yl)-3-methyl-2,6-dioxo-2,3,6,7-tetrahydro-1H-purin-1-yl)methyl)-6-fluoronicotinate]",,> 1000
"CCCCCCN(Cc1cn(CCOCCOCCNC(=O)c2nc(C(F)(F)F)n3c2CN(C(=O)C[C@H](N)Cc2cc(F)c(F)cc2F)CC3)nn1)CC(O)C(O)C(O)C(O)CO (stereo partly drawn) [Compound 47, 7-((R)-3-amino-4-(2,4,5-trifluorophenyl)butanoyl)-N-(2-(2-(2-(4-((hexyl(2,3,4,5,6-pentahydroxyhexyl)amino)methyl)-1H-1,2,3-triazol-1-yl)ethoxy)ethoxy)ethyl)-3-(trifluoromethyl)-5,6,7,8-tetrahydroimidazo[1,5-a]pyrazine-1-carboxamide]",,2.2
"N[C@@H](CC(=O)N1CCn2c(C(F)(F)F)nc(C(=O)OCCCCN3CCOCC3)c2C1)Cc1cc(F)c(F)cc1F [Compound 54, (R)-4-(1-((4-morpholinobutoxy)carbonyl)-3-(trifluoromethyl)-5,6-dihydroimidazo[1,5-a]pyrazin-7(8H)-yl)-4-oxo-1-(2,4,5-trifluorophenyl)butan-2-aminium (2R,3R)-3-carboxy-2,3-dihydroxypropanoate]",,0.5
CC#CCn1c(N2CCC[C@@H](N)C2)nc2c1c(=O)n(Cc1nc(NCCCC)ccc1C(=O)O)c(=O)n2C [Compound 33],,11.4
"N#C[C@@H]1CCCN1C(=O)CN[C@@]12CC3C[C@@H](C1)C[C@](OCCOCCn1cc(CN(C[C@H](O)[C@@H](O)[C@H](O)[C@H](O)CO)C[C@H](O)[C@@H](O)[C@H](O)[C@H](O)CO)nn1)(C3)C2 [Compound 9, (2S)-1-(((1S,3R,5S)-3-(2-(2-(4-((bis((2S,3R,4R,5R)-2,3,4,5,6-pentahydroxyhexyl)amino)methyl)-1H-1,2,3-triazol-1-yl)ethoxy)ethoxy)adamantan-1-yl)glycyl)pyrrolidine-2-carbonitrile]",,10.8
"CCCCCCN(CCc1ccc(OCCNC(=O)OCCOC23CC4C[C@@H](CC(NCC(=O)N5CCC[C@H]5C#N)(C4)C2)C3)cc1)C[C@H](O)[C@@H](O)[C@H](O)[C@H](O)CO (stereo in doubt) [Compound 13, 2-(((1R,3S,5S)-3-((2-((S)-2-cyanopyrrolidin-1-yl)-2-oxoethyl)amino)adamantan-1-yl)oxy)ethyl (2-(4-(2-(hexyl((2S,3R,4R,5R)-2,3,4,5,6-pentahydroxyhexyl)amino)ethyl)phenoxy)ethyl)carbamate]",,23
"N[C@@H](CC(=O)N1CCn2c(C(F)(F)F)nc(C(=O)OCCOCCN3CCOCC3)c2C1)Cc1cc(F)c(F)cc1F [Compound 52, (R)-4-(1-((2-(2-morpholinoethoxy)ethoxy)carbonyl)-3-(trifluoromethyl)-5,6-dihydroimidazo[1,5-a]pyrazin-7(8H)-yl)-4-oxo-1-(2,4,5-trifluorophenyl)butan-2-aminium (2R,3R)-3-carboxy-2,3-dihydroxypropanoate]",,0.54
"N#C[C@@H]1CCCN1C(=O)CN[C@]12CC3CC(C1)C[C@@](OCCO)(C3)C2 (stereo in doubt) [Compound 5, (2S)-1-(((1S,3R,5S)-3-(2-hydroxyethoxy)adamantan-1-yl)glycyl)pyrrolidine-2-carbonitrile]",,2.3
CC#CCn1c(N2CCC[C@@H](N)C2)nc2c1c(=O)n(Cc1nc(NC)ccc1C(=O)O)c(=O)n2C [Compound 31],,11.4
"CC#CCn1c(N2CCC[C@@H](N)C2)nc2c1c(=O)n(Cc1ccc(Cl)cc1C(=O)NCCCCC)c(=O)n2C [Compound 40, (R)-2-((8-(3-aminopiperidin-1-yl)-7-(but-2-yn-1-yl)-3-methyl-2,6-dioxo-2,3,6,7-tetrahydro-1H-purin-1-yl)methyl)-5-chloro-N-pentylbenzamide]",,700
CC#CCn1c(N2CCC[C@@H](N)C2)nc2c1c(=O)n(Cc1ccc(Cl)cc1Br)c(=O)n2C [Compound 36],,27
CCCCCCCC(=O)OC12CC3C[C@@H](CC(NCC(=O)N4CCC[C@H]4C#N)(C3)C1)C2 (stereo in doubt) [Compound 24],,238
